Results as given in paper PMC7412250, “Novel Chrysin-De-Allyl PAC-1 Hybrid Analogues as Anticancer Compounds: Design, Synthesis, and Biological Evaluation” (Molecules, 2020).

Tests used:
[1] = system: MDA-MB-231 cells; experiment: Morphological observation of cells; assay type: cell-based, human; conditions: 20 µM
Procedure: Figure 3 Effects of 4g and 4i on cellular morphology, mitochondrial membrane potential, and cell cycle (A) Morphological observations of MDA-MB-231 cells incubated with 0, 5, and 20 µM concentrations of 4g and 4i at different time intervals of 0, 24, 48, and 72 h, respectively; (B) The MDA-MB-231 cells in complete medium were incubated with 4g and 4i at 0, 5, or 10 µM for 24 h. Cells were then incubated with the reagents of the MitoTracker Red and Alexa Fluor 488 annexin V kits for flow cytometry. Representative results of MDA-MB-231 cells from two independent experiments, each performed in triplicate, are shown; (C) Histograms quantitatively summarize the results following incubation with 4g and 4i, respectively; (D) The induction of cell cycle arrest in MDA-MB-231 cells by 4g and 4i is shown. The MDA-MB-231 cells were incubated with different concentrations (0, 5, and 10 µM) of 4g and 4i for 24 h and were subjected to cell cycle analysis by flow cytometry of PI (X axis)/cell counts (Y axis); (E) A histogram quantitatively summarizing the change in % of cells in each phase of the cell cycle due to incubation with 4g and 4i. The data represents means ± SEM of three independent experiments performed in triplicate with **** p < 0.0001 vs. control group. […]

[2] = system: HMEC (human mammary epithelial cells); experiment: MTT cytotoxicity assay, normal cells HMEC; assay type: cell-based; conditions: mean ± SEM of three independent experiments in triplicate
Procedure: A panel of cancer cell lines, including breast (MDA-MB-231, BT20), brain (U251), and colon (HCT116), as well as a normal cell line (human mammary epithelial cells: HMECs), were grown as adherent monolayers in flasks with Dulbecco’s Modified Eagle Medium (DMEM), supplemented with 10% fetal bovine serum (FBS) and 1% penicillin and streptomycin in a humidified incubator with 5% CO2 at 37 °C.
The (3-(4,5-dimethylthiazol-2-yl)-2,5-diphenyltetrazolium bromide) (MTT) assay was used to determine the cytotoxicity of the 15 chrysin derivatives in the above-mentioned cell lines. Briefly, cells were harvested with 0.05% trypsin, 2.21 mM ethylenediaminetetraacetic acid (EDTA), 1× from Corning (Corning, NY, USA), and suspended at a final density of 5 × 10^3 cells/well. Cells were seeded (180 μL/well) into 96-well plates. Initially, four different concentrations of each compound were added to find the compounds with the greatest antiproliferative efficacy in the MDA-MB-231 cell line (0, 1, 10, and 100 μM). Subsequently, […] different concentrations […] of each compound were added to the remaining cell lines mentioned above. After 68 h of incubation, 20 μL of the MTT solution (4 mg/mL) were added to each well, and the plates were incubated for 4 h. This allowed viable cells to biotransform the yellow-colored MTT into dark-blue formazan crystals. Subsequently, the medium was discarded, and 150 μL of DMSO were added to each well to dissolve the formazan crystals. The absorbance was determined at 590 nm using a DTX 880 multimode detector (Beckman Coulter life sciences, IN, USA). The IC50 ± SD concentrations were calculated from three experiments performed in triplicate/duplicate. The IC50 values were calculated from the cell survival percentages obtained for each compound tested at different concentrations. Similarly, the cytotoxicity of the test compounds was compared to the normal cell line (HMEC).

| SMILES | cellular morphology [1] | IC50 [2] [µM] |
| --- | --- | --- |
| O=C(COc1cc(O)c2c(=O)cc(-c3ccccc3)oc2c1)N/N=C/c1ccc(O)cc1O [Compound 4g, (E,Z)-N’-(2,4-Dihydroxybenzylidene)-2-((5-hydroxy-4-oxo-2-phenyl-4H-chromen-7-yl)oxy)acetohydrazide] | decreased the number of adherent MDA-MB-231 cells and induced cellular shrinkage | 8 ± 1.33 |
| O=C(COc1cc(O)c2c(=O)cc(-c3ccccc3)oc2c1)N/N=C/c1ccc(O)c(O)c1O [Compound 4i, (E,Z)-2-((5-Hydroxy-4-oxo-2-phenyl-4H-chromen-7-yl)oxy)-N’-(2,3,4-trihydroxybenzylidene)acetohydrazide] | decreased the number of adherent MDA-MB-231 cells and induced cellular shrinkage | > 100 |
